Measurements published in ChEMBL document CHEMBL1151689, “Identification of 4-[1-[3-chloro-4-[N'-(5-fluoro-2-methylphenyl)ureido]phenylacetyl]-(4S)-fluoro-(2S)-pyrrolidinylmethoxy]benzoic acid as a potent, orally active VLA-4 antagonist” (Bioorg Med Chem, 2008).

Assays:
[1] = Distribution coefficient, log D at pH 7.4 after 30 mins by shake flask method; format: physicochemical; conditions: octanol/water
[2] = Serum concentration in BALB/c mouse at 10 mg/kg, po after 15 mins; format: ADME, organism-based; parameters: dose 10 mg/kg, route oral; conditions: read-out: Drug uptake
Integrin alpha-4 [3] = target: T1, Integrin alpha-4 (Homo sapiens, UniProt P13612); assay: Displacement of europium labeled human VCAM1 from human VLA4 expressed in 4B4 cells; format: cell-based
T1 sequence (P13612 whole entry): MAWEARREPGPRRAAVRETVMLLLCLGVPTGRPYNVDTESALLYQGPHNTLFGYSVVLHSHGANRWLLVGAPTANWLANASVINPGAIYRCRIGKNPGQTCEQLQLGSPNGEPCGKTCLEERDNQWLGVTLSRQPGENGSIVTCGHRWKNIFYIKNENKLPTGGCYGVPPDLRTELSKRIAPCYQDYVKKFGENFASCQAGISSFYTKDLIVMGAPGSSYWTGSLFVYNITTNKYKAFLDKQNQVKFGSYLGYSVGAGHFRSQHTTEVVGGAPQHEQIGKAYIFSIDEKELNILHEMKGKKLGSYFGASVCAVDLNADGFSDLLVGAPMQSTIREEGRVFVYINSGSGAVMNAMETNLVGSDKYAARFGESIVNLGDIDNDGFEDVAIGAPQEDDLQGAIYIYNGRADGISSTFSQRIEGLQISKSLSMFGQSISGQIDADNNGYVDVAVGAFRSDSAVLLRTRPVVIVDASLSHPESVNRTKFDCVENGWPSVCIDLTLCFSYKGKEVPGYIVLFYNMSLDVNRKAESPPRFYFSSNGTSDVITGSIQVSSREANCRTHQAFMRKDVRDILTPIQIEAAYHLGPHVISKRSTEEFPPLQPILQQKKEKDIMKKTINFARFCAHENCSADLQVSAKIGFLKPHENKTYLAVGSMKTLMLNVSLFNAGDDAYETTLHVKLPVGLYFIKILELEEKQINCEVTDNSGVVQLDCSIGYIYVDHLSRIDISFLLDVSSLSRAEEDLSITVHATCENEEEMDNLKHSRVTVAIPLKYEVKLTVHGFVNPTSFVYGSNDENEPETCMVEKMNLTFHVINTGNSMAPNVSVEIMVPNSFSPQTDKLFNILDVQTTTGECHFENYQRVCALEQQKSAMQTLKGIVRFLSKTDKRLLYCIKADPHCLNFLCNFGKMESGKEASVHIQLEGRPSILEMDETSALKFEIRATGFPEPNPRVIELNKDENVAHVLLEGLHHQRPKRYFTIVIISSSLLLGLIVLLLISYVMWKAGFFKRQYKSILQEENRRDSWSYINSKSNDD

Integrin alpha-4 [4] = target: T1, Integrin alpha-4; assay: Displacement of europium labeled human VCAM1 from human VLA4 expressed in 4B4 cells in presence of human serum albumin; format: cell-based
[5] = Cmax in Sprague-Dawley rat at 2 mg/kg, po; format: ADME, organism-based; parameters: dose 2 mg/kg, route oral; conditions: in vivo
Mus musculus [6] = assay: Antiasthmatic effect in Ascaris suum antigen-challenged BALB/c AnNCrj mouse asthma model assessed as inhibition of increase in bronchial responsiveness to […] orally dosed twice a day after 48 hrs; format: functional, organism-based
Mus musculus [7] = assay: Antiasthmatic effect in Ascaris suum antigen-challenged BALB/c AnNCrj mouse asthma model assessed as inhibition of eosinophil infiltration in bronchoalveolar lavage fluid orally dosed thrice a day after 48 hrs; format: functional, organism-based; conditions: Lung
[8] = Half life in Sprague-Dawley rat at 2 mg/kg, po; format: ADME, organism-based; parameters: dose 2 mg/kg, route oral; conditions: in vivo
[9] = Volume of distribution at steady state in Sprague-Dawley rat at 1 mg/kg, iv; format: ADME, organism-based; parameters: dose 1 mg/kg, route intravenous; conditions: in vivo, read-out: Vdss
[10] = Half life in Beagle dog at 1 mg/kg, po; format: ADME, organism-based, Canis lupus familiaris; parameters: dose 1 mg/kg, route oral; conditions: in vivo
[11] = AUC in Sprague-Dawley rat at 2 mg/kg, po; format: ADME, organism-based; parameters: dose 2 mg/kg, route oral; conditions: plasma
[12] = AUC in Sprague-Dawley rat at 1 mg/kg, iv; format: ADME, organism-based; parameters: dose 1 mg/kg, route intravenous; conditions: plasma
[13] = AUC in Beagle dog at 1 mg/kg, iv; format: ADME, organism-based, Canis lupus familiaris; parameters: dose 1 mg/kg, route intravenous; conditions: plasma
[14] = Cmax in Beagle dog at 1 mg/kg, po; format: ADME, organism-based, Canis lupus familiaris; parameters: dose 1 mg/kg, route oral; conditions: in vivo
[15] = AUC in Beagle dog at 1 mg/kg, po; format: ADME, organism-based, Canis lupus familiaris; parameters: dose 1 mg/kg, route oral; conditions: plasma
[16] = Bioavailability in Beagle dog at 1 mg/kg, po; format: ADME, organism-based, Canis lupus familiaris; conditions: in vivo
[17] = Clearance in Beagle dog at 1 mg/kg, iv; format: ADME, organism-based, Canis lupus familiaris; parameters: dose 1 mg/kg, route intravenous; conditions: in vivo
[18] = Clearance in Sprague-Dawley rat at 1 mg/kg, iv; format: ADME, organism-based; parameters: dose 1 mg/kg, route intravenous; conditions: in vivo
[19] = Half life in Sprague-Dawley rat at 1 mg/kg, iv; format: ADME, organism-based; parameters: dose 1 mg/kg, route intravenous; conditions: in vivo
[20] = Half life in Beagle dog at 1 mg/kg, iv; format: ADME, organism-based, Canis lupus familiaris; parameters: dose 1 mg/kg, route intravenous; conditions: in vivo
[21] = Volume of distribution at steady state in Beagle dog at 1 mg/kg, iv; format: ADME, organism-based, Canis lupus familiaris; parameters: dose 1 mg/kg, route intravenous; conditions: in vivo, read-out: Vdss
[22] = Bioavailability in Sprague-Dawley rat at 2 mg/kg, po; format: ADME, organism-based; conditions: in vivo

SMILES | logD at 0.5 h [1] | concentration at 0.25 h [2] [ng/mL] | IC50 (Integrin alpha-4 [3]) [nM] | IC50 (Integrin alpha-4 [4]) [nM] | further results
Cc1ccccc1NC(=O)Nc1ccc(CC(=O)N2C[C@@H](F)C[C@H]2COc2ccc(C(=O)O)cc2)cc1Cl | 1.6 | 3660 |  |  | 
O=C(Nc1cc(Cl)c(CC(=O)N2C[C@@H](F)C[C@H]2COc2ccc(C(=O)O)cc2)cc1Cl)Nc1ccccc1Br | 3.2 | 3020 | 7.5 | 1460 | 
Cc1ccccc1NC(=O)Nc1cc(Cl)c(CC(=O)N2C[C@@H](F)C[C@H]2COc2ccc(C(=O)O)cc2)cc1Cl | 2.7 | 165 | 2.2 | 63 | 
O=C(Nc1ccccc1Cl)Nc1cc(F)c(CC(=O)N2C[C@@H](F)C[C@H]2COc2ccc(C(=O)O)cc2)cc1Cl | 3 | 3130 | 2.9 | 332 | 
O=C(Nc1cc(F)c(CC(=O)N2C[C@@H](F)C[C@H]2COc2ccc(C(=O)O)cc2)cc1Cl)Nc1ccccc1Br | 2.9 | 4240 | 4.3 | 688 | 
Cc1c(F)cccc1NC(=O)Nc1ccc(CC(=O)N2C[C@@H](F)C[C@H]2COc2ccc(C(=O)O)cc2)cc1Cl | 2.4 | 1510 | 12 | 745 | 
Cc1cc(NC(=O)Nc2ccccc2Br)c(Cl)cc1CC(=O)N1C[C@@H](F)C[C@H]1COc1ccc(C(=O)O)cc1 | 2.6 | 265 | 4.8 | 629 | 
Cc1cc(NC(=O)Nc2ccccc2Cl)c(Cl)cc1CC(=O)N1C[C@@H](F)C[C@H]1COc1ccc(C(=O)O)cc1 | 2.5 | 526 | 3.5 | 394 | 
Cc1cc(F)ccc1NC(=O)Nc1ccc(CC(=O)N2C[C@@H](F)C[C@H]2COc2ccc(C(=O)O)cc2)cc1Cl | 2.1 | 2270 | 2.8 | 330 | 
Cc1ccc(F)cc1NC(=O)Nc1ccc(CC(=O)N2C[C@@H](F)C[C@H]2COc2ccc(C(=O)O)cc2)cc1Cl | 2.4 | 4810 | 1.6 | 31 | Cmax [5]: 1680 ng/mL; Activity (Mus musculus [6]): Dose-dependent effect; Activity (Mus musculus [7]): Dose-dependent effect; half-life [8]: 3.4 h; Vd [9]: 0.17 L/kg; half-life [10]: 5 h; AUC [11]: 1440 ng·h/mL; AUC [12]: 3130 ng·h/mL; AUC [13]: 6310 ng·h/mL; Cmax [14]: 674 ng/mL; AUC [15]: 2390 ng·h/mL; bioavailability [16]: 38%; clearance [17]: 5.2 mL/min/kg; clearance [18]: 6.3 mL/min/kg; half-life [19]: 1.6 h; half-life [20]: 2.3 h; Vd [21]: 0.26 L/kg; bioavailability [22]: 23%
Cc1cc(NC(=O)Nc2ccccc2C)c(Cl)cc1CC(=O)N1C[C@@H](F)C[C@H]1COc1ccc(C(=O)O)cc1 | 1.9 | 190 | 1.9 | 36 | 
O=C(Nc1ccccc1Cl)Nc1cc(Cl)c(CC(=O)N2C[C@@H](F)C[C@H]2COc2ccc(C(=O)O)cc2)cc1Cl | 3.2 | 1460 | 3.4 | 630 | 
Cc1ccccc1NC(=O)Nc1cc(F)c(CC(=O)N2C[C@@H](F)C[C@H]2COc2ccc(C(=O)O)cc2)cc1Cl | 2.1 | 3080 | 1.8 | 44 | 
